In brackets after ≈: the same amount, converted by molar mass. One block for each compound: values may come before it.
Columns and labels:
Assay in all cases: ≥ marks a high value that may be exact or a test limit, other limits are often not marked, values filed in µg/mL are converted to µM
[1] = test system: Escherichia coli ATCC 25922
[2] = test system: Escherichia coli DH5alpha
[3] = test system: Escherichia coli
[4] = test system: Pseudomonas aeruginosa ATCC 27853
[5] = test system: Pseudomonas aeruginosa H188
[6] = test system: Acinetobacter baumannii ATCC 19606
[7] = test system: Escherichia coli BW25113 ΔsbmA
[8] = test system: Escherichia coli BW25113
[9] = test system: Klebsiella pneumoniae ATCC 700603
[10] = test system: Salmonella enterica subsp. enterica serovar Typhimurium ATCC 14028
[11] = test system: Staphylococcus aureus ATCC 25923
[12] = test system: Escherichia coli ATCC 8739
[13] = test system: Bacillus subtilis ATCC 6633
[14] = test system: Candida albicans ATCC 90028
[15] = test system: Staphylococcus aureus ATCC 43300
[16] = test system: Staphylococcus aureus ATCC 6538
[17] = test system: Candida albicans
[18] = test system: Escherichia coli MG1655
[19] = test system: Pseudomonas aeruginosa PAO1
[20] = test system: Cryptococcus neoformans ATCC 208821

MIC [6]: 64 µM (≈ 138 µg/mL)
MIC [1]: 16 µM (≈ 34.6 µg/mL)
MIC [7]: ≥ 64 µM
MIC [8]: 11.3 µM (≈ 24.5 µg/mL)
MIC [3]: 5.66 µM (≈ 12.2 µg/mL)
MIC [9]: > 64 µM
MIC [4]: > 64 µM
MIC [10]: 32 µM (≈ 69.2 µg/mL)
MIC [11]: > 64 µM
SMILES: CC[C@H](C)[C@H](NC(=O)[C@@H]1CCCN1C(=O)[C@@H]1CCCN1C(=O)[C@H](CCCN=C(N)N)NC(=O)[C@H](Cc1ccccc1)NC(=O)[C@@H](N)CCCN=C(N)N)C(=O)N[C@@H](CCCN=C(N)N)C(=O)N[C@@H](CCCN=C(N)N)C(=O)N1CCC[C@H]1C(=O)N1CCC[C@H]1C(=O)N[C@H](C(=O)N[C@@H](CCCN=C(N)N)C(=O)N1CCC[C@H]1C(=O)N1CCC[C@H]1C(=O)N[C@@H](Cc1ccccc1)C(=O)N[C@@H](Cc1ccc(O)cc1)C(=O)N1CCC[C@H]1C(=O)O)[C@@H](C)CC [RFRPPIRRPPIRPPFYP]

MIC [17]: > 128 µM
MIC [18]: ≥ 128 µM
MIC [19]: > 128 µM
MIC [11]: > 128 µM
SMILES: CC(C)C[C@H](NC(=O)[C@@H](NC(=O)[C@H](CCC(=O)O)NC(=O)[C@@H](N)CCCN=C(N)N)C(C)C)C(=O)NCC(=O)N[C@@H](Cc1ccc(O)cc1)C(=O)N[C@@H](CCC(=O)O)C(=O)N[C@@H](CCCN=C(N)N)C(=O)N[C@@H](CC(N)=O)C(=O)N[C@@H](CO)C(=O)N[C@@H](Cc1ccc(O)cc1)C(=O)N[C@@H](CCCCN)C(N)=O [REVLGYERNSYK]

MIC [18]: ≥ 128 µM
SMILES: CC[C@H](C)[C@H](NC(=O)[C@H](CCCCN)NC(=O)CNC(=O)[C@H](CC(C)C)NC(=O)[C@H](Cc1ccccc1)NC(=O)[C@H](CCC(N)=O)NC(=O)[C@H](Cc1ccccc1)NC(=O)[C@@H](N)C(C)C)C(=O)N[C@H](C(=O)N[C@@H](Cc1cnc[nH]1)C(=O)N[C@@H](Cc1cnc[nH]1)C(=O)N[C@H](C(=O)NCC(=O)N[C@@H](CC(N)=O)C(=O)N[C@@H](Cc1ccccc1)C(=O)N[C@H](C(=O)N[C@@H](C)C(=O)NCC(=O)N[C@@H](Cc1ccccc1)C(=O)N[C@@H](CO)C(=O)N[C@@H](C)C(=O)N[C@H](C(=O)N[C@@H](Cc1ccccc1)C(N)=O)C(C)C)C(C)C)C(C)C)[C@@H](C)CC [VFQFLGKIIHHVGNFVAGFSAVF]

MIC [6]: > 18.3 µM
MIC [14]: 18.3 µM (≈ 32 µg/mL)
MIC [20]: 4.59 µM (≈ 8 µg/mL)
MIC [1]: > 18.3 µM
MIC [9]: > 18.3 µM
MIC [4]: > 18.3 µM
MIC [15]: 18.3 µM (≈ 32 µg/mL)
SMILES: NC(=O)CC[C@H](NC(=O)[C@H](Cc1cnc[nH]1)NC(=O)[C@H](CO)NC(=O)[C@H](CCCN=C(N)N)NC(=O)[C@H](Cc1ccccc1)NC(=O)[C@H](Cc1cnc[nH]1)NC(=O)[C@H](CCCN=C(N)N)NC(=O)[C@H](Cc1cnc[nH]1)NC(=O)[C@H](Cc1cnc[nH]1)NC(=O)[C@@H](N)CO)C(=O)N[C@@H](CS)C(=O)N[C@@H](CCCN=C(N)N)C(=O)N[C@@H](CCCN=C(N)N)C(=O)O [SHHRHFRSHQCRR]

The next lines start with the compound.

SMILES: CC[C@H](C)[C@H](NC(=O)[C@H](C)NC(=O)[C@H](CCCCN)NC(=O)[C@H](CC(C)C)NC(=O)[C@H](C)NC(=O)[C@@H](NC(=O)[C@H](Cc1cnc[nH]1)NC(=O)[C@H](CC(C)C)NC(=O)CNC(=O)[C@@H](NC(=O)[C@H](CCCCN)NC(=O)[C@H](CCCCN)NC(=O)[C@H](C)NC(=O)[C@H](CO)NC(=O)[C@H](CCCCN)NC(=O)[C@H](Cc1ccccc1)NC(=O)[C@@H](NC(=O)[C@H](CCCCN)NC(=O)[C@H](CC(C)C)NC(=O)[C@H](Cc1ccccc1)NC(=O)[C@H](CO)NC(=O)[C@H](CCCCN)NC(=O)[C@H](Cc1c[nH]c2ccccc12)NC(=O)[C@H](CCCCN)NC(C)=O)[C@@H](C)O)[C@@H](C)O)[C@@H](C)O)C(=O)N[C@@H](CO)C(=O)N[C@@H](CO)C(N)=O [KWKSFLKTFKSAKKTGLHTALKAISS]
MIC [1]: 2.75 µM (≈ 8.11 µg/mL)
MIC [2]: 2.75 µM (≈ 8.11 µg/mL)
MIC [3]: 5.5 µM (≈ 16.2 µg/mL)
MIC [4]: 11 µM (≈ 32.5 µg/mL)
MIC [5]: 2.75 µM (≈ 8.11 µg/mL)

SMILES: CC[C@H](C)[C@H](NC(=O)[C@H](CCCCN)NC(=O)[C@H](CCCCN)NC(=O)[C@H](CCCCN)NC(=O)[C@@H](NC(=O)[C@H](CCCN=C(N)N)NC(=O)[C@@H](NC(=O)[C@H](CC(C)C)NC(=O)[C@H](CC(C)C)NC(=O)[C@H](CCCCN)NC(=O)[C@H](CCSC)NC(=O)[C@@H]1CCCN1)C(C)C)C(C)C)C(=O)NCC(=O)N[C@@H](CC(=O)O)C(=O)N[C@@H](C)C(=O)N[C@@H](CC(C)C)C(=O)N[C@@H](CCC(=O)O)C(=O)N[C@@H](CC(C)C)C(=O)NCC(=O)O [PMKLLVRVKKKIGDALELG]
MIC [12]: ≥ 60.7 µM

SMILES: CC[C@H](C)[C@H](NC(=O)CN)C(=O)N[C@@H](Cc1ccccc1)C(=O)N[C@@H](CO)C(=O)N[C@@H](CC(C)C)C(=O)N[C@H](C(=O)N[C@@H](CCCCN)C(=O)NCC(=O)N[C@@H](C)C(=O)N[C@@H](C)C(=O)N[C@@H](CCCCN)C(=O)N[C@@H](CC(C)C)C(=O)N[C@H](C(=O)N[C@H](C(=O)N[C@@H](CCCCN)C(=O)N[C@H](C(=O)N[C@H](C(=O)N[C@@H](C)C(=O)N[C@@H](CCCCN)C(=O)N[C@@H](CCC(=O)O)C(=O)N[C@@H](C)C(=O)NCC(=O)N[C@@H](CCCCN)C(=O)N[C@H](C(=O)NCC(=O)N[C@@H](CC(C)C)C(=O)N[C@@H](CCC(=O)O)C(=O)N[C@@H](CC(C)C)C(=O)N[C@@H](CCSC)C(=O)N[C@@H](C)C(=O)N[C@H]1CSSC[C@@H](C(=O)O)NC(=O)[C@H](CCC(N)=O)NC(=O)[C@H](CC(N)=O)NC(=O)[C@H]([C@@H](C)O)NC(=O)[C@H](C(C)C)NC(=O)[C@H](CCCCN)NC1=O)[C@@H](C)O)C(C)C)[C@@H](C)O)[C@@H](C)O)[C@@H](C)CC)[C@@H](C)CC [GIFSLIKGAAKLITKTVAKEAGKTGLELMACKVTNQC]
MIC [13]: 6.3 µM (≈ 24.2 µg/mL)
MIC [14]: ≥ 100 µM
MIC [12]: 12.5 µM (≈ 47.9 µg/mL)
MIC [15]: 25 µM (≈ 95.9 µg/mL)
MIC [16]: 3.1 µM (≈ 11.9 µg/mL)

SMILES: CC[C@H](C)[C@H](NC(=O)[C@H](CCCCN)NC(=O)[C@H](CC(=O)O)NC(=O)[C@H](CC(C)C)NC(=O)[C@@H](NC(=O)[C@H](CCCN=C(N)N)NC(=O)[C@H](CC(C)C)NC(=O)[C@H](CC(C)C)NC(=O)[C@H](CC(C)C)NC(=O)[C@H](CCCCN)NC(=O)[C@H](CC(N)=O)NC(=O)[C@@H](NC(=O)[C@H](CCCCN)NC(=O)[C@H](CCCCN)NC(=O)[C@@H]1CCCN1)[C@@H](C)CC)[C@@H](C)CC)C(=O)N[C@@H](C)C(=O)N[C@@H](CO)C(=O)N[C@@H](Cc1ccccc1)C(=O)N[C@@H](CO)C(=O)O [PKKINKLLLRILDKIASFS]
MIC [12]: 14.6 µM (≈ 32 µg/mL)

SMILES: CC[C@H](C)[C@H](NC(=O)[C@H](C)NC(=O)[C@@H](NC(=O)[C@H](CCCCN)NC(=O)[C@H](CCCCN)NC(=O)[C@H](Cc1cnc[nH]1)NC(=O)[C@@H](NC(=O)[C@H](CCCCN)NC(=O)[C@H](CS)NC(=O)[C@@H](NC(=O)[C@@H](NC(=O)[C@H](CCCN=C(N)N)NC(=O)[C@@H](NC(=O)[C@H](C)NC(=O)[C@H](CC(C)C)NC(=O)[C@H](CCCCN)NC(=O)[C@@H]1CCCN1)[C@@H](C)CC)[C@@H](C)CC)[C@@H](C)O)[C@@H](C)CC)C(C)C)C(=O)N[C@@H](CO)C(=O)N[C@H](C(=O)O)C(C)C [PKLAIRITCKIHKKVAISV]
MIC [12]: 30.2 µM (≈ 64 µg/mL)
MIC [11]: 121 µM (≈ 256 µg/mL)

SMILES: CC[C@H](C)[C@H](NC(=O)[C@H](C)NC(=O)[C@H](CCCCN)NC(=O)[C@H](CC(C)C)NC(=O)[C@H](C)NC(=O)[C@@H](NC(=O)[C@H](Cc1cnc[nH]1)NC(=O)[C@H](CC(C)C)NC(=O)[C@H](CC(C)C)NC(=O)[C@@H](NC(=O)[C@H](CCCCN)NC(=O)[C@H](CCCCN)NC(=O)[C@H](C)NC(=O)[C@H](CO)NC(=O)[C@H](CCCCN)NC(=O)[C@H](Cc1ccccc1)NC(=O)[C@@H](NC(=O)[C@H](CCCCN)NC(=O)[C@H](CC(C)C)NC(=O)[C@H](Cc1ccccc1)NC(=O)[C@H](CO)NC(=O)[C@H](CCCCN)NC(=O)[C@H](Cc1c[nH]c2ccccc12)NC(=O)[C@H](CCCCN)NC(C)=O)[C@@H](C)O)[C@@H](C)O)[C@@H](C)O)C(=O)N[C@@H](CO)C(=O)N[C@@H](CO)C(N)=O [KWKSFLKTFKSAKKTLLHTALKAISS]
MIC [1]: 0.337 µM (≈ 1.01 µg/mL)
MIC [2]: 1.35 µM (≈ 4.06 µg/mL)
MIC [3]: 0.337 µM (≈ 1.01 µg/mL)
MIC [4]: 0.675 µM (≈ 2.03 µg/mL)
MIC [5]: 0.675 µM (≈ 2.03 µg/mL)
